In PubChem BioAssay (NCI):
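Five concentrations, 48 hours, 96-well plates. At the GI50, growth is halved. TGI: concentration producing complete growth inhibition.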

Columns and labels:
Test in all cases: NCI-60 cell line screen, 48 h
RPMI-8226 leukemia = test system: RPMI-8226 leukemia
ACHN renal = test system: ACHN renal
COLO 205 colon = test system: COLO 205 colon
OVCAR-4 ovarian = test system: OVCAR-4 ovarian
UO-31 renal = test system: UO-31 renal
NCI-H226 lung = test system: NCI-H226 lung
HCC-2998 colon = test system: HCC-2998 colon
A498 renal = test system: A498 renal
CAKI-1 renal = test system: CAKI-1 renal

For `C(=C\c1csnn1)/c1cccnc1`, the TGI (RPMI-8226 leukemia) was > 100 µM, the TGI (ACHN renal) was > 100 µM and the TGI (COLO 205 colon) was > 100 µM. The TGI (OVCAR-4 ovarian) was > 100 µM, the TGI (UO-31 renal) was > 100 µM and the TGI (NCI-H226 lung) was > 100 µM. For the same molecule, the TGI (HCC-2998 colon) was > 100 µM and the TGI (A498 renal) was > 100 µM.
For `O=c1c2ccc3cccc4c(=O)cc(c5ccccc15)-c2c34`, the TGI (ACHN renal) was > 100 µM, the TGI (COLO 205 colon) was > 100 µM and the TGI (CAKI-1 renal) was > 100 µM. For the same molecule, the TGI (OVCAR-4 ovarian) was > 100 µM, the TGI (UO-31 renal) was > 100 µM and the TGI (NCI-H226 lung) was > 100 µM. For the same molecule, the TGI (HCC-2998 colon) was > 100 µM and the TGI (A498 renal) was > 100 µM.
With `Cn1c(CCC#N)nc2ccc(Br)cc2c1=O` the TGI (RPMI-8226 leukemia) was > 100 µM, the TGI (ACHN renal) was > 100 µM and the TGI (COLO 205 colon) was > 100 µM. The TGI (CAKI-1 renal) was > 100 µM, the TGI (OVCAR-4 ovarian) was > 100 µM and the TGI (UO-31 renal) was > 100 µM. For the same molecule, the TGI (NCI-H226 lung) was > 100 µM, the TGI (HCC-2998 colon) was > 100 µM and the TGI (A498 renal) was > 100 µM.
`O=c1/c(=C/c2ccc(Cl)cc2Cl)sc2nc3ccccc3n12` was tested, and the TGI (ACHN renal) was > 100 µM, the TGI (COLO 205 colon) was > 100 µM and the TGI (CAKI-1 renal) was > 100 µM. The TGI (OVCAR-4 ovarian) was > 100 µM, the TGI (UO-31 renal) was > 100 µM and the TGI (NCI-H226 lung) was > 100 µM. The TGI (HCC-2998 colon) was > 100 µM and the TGI (A498 renal) was > 100 µM.
With `O=C(Nc1c(-c2nc3ccccc3[nH]2)sc(=S)n1-c1ccccc1)c1ccccc1` the TGI (RPMI-8226 leukemia) was > 100 µM, the TGI (ACHN renal) was > 100 µM and the TGI (COLO 205 colon) was > 100 µM. The TGI (CAKI-1 renal) was > 100 µM, the TGI (UO-31 renal) was > 100 µM and the TGI (NCI-H226 lung) was 58.1 µM. The TGI (HCC-2998 colon) was > 100 µM and the TGI (A498 renal) was > 100 µM.
In the case of `O=C(CCC(=O)Nc1ccc(Cl)cc1)CC(=O)c1ccc(F)cc1`, the TGI (RPMI-8226 leukemia) is reported as > 100 µM, the TGI (ACHN renal) is reported as > 100 µM and the TGI (COLO 205 colon) is reported as > 100 µM. The TGI (CAKI-1 renal) was > 100 µM, the TGI (OVCAR-4 ovarian) was > 100 µM and the TGI (UO-31 renal) was > 100 µM. For the same molecule, the TGI (NCI-H226 lung) was > 100 µM and the TGI (HCC-2998 colon) was > 100 µM.
`Cc1ccc(NC(=O)/C(CC(=O)c2c[n+](=O)c3ccccc3n2O)=N\NC(=O)C[n+]2ccccc2)cc1` was tested, and the TGI (RPMI-8226 leukemia) was > 100 µM, the TGI (ACHN renal) was > 100 µM and the TGI (COLO 205 colon) was > 100 µM. For the same molecule, the TGI (CAKI-1 renal) was > 100 µM, the TGI (OVCAR-4 ovarian) was > 100 µM and the TGI (UO-31 renal) was > 100 µM. The TGI (NCI-H226 lung) was > 100 µM, the TGI (HCC-2998 colon) was > 100 µM and the TGI (A498 renal) was > 100 µM.
`COc1ccc2c3c1C(=O)CCC3CO2` (configuration not stated) was tested, and the TGI (RPMI-8226 leukemia) was > 100 µM, the TGI (ACHN renal) was > 100 µM and the TGI (COLO 205 colon) was > 100 µM. For the same molecule, the TGI (CAKI-1 renal) was > 100 µM, the TGI (OVCAR-4 ovarian) was > 100 µM and the TGI (UO-31 renal) was > 100 µM. The TGI (HCC-2998 colon) was > 100 µM and the TGI (A498 renal) was > 100 µM.
For `CC(=O)OC12c3ccccc3C1CCCCCC21OCCCO1` (configuration not stated), the TGI (RPMI-8226 leukemia) was > 100 µM, the TGI (ACHN renal) was > 100 µM and the TGI (COLO 205 colon) was > 100 µM. The TGI (CAKI-1 renal) was > 100 µM, the TGI (OVCAR-4 ovarian) was > 100 µM and the TGI (UO-31 renal) was > 100 µM. For the same molecule, the TGI (NCI-H226 lung) was > 100 µM, the TGI (HCC-2998 colon) was > 100 µM and the TGI (A498 renal) was > 100 µM.
For `CC(=O)N1CC2Nc3ccccc3C2CC1CO` (configuration not stated), the TGI (RPMI-8226 leukemia) was > 100 µM, the TGI (ACHN renal) was > 100 µM and the TGI (COLO 205 colon) was > 100 µM. For the same molecule, the TGI (CAKI-1 renal) was > 100 µM, the TGI (OVCAR-4 ovarian) was > 100 µM and the TGI (UO-31 renal) was > 100 µM. The TGI (NCI-H226 lung) was > 100 µM, the TGI (HCC-2998 colon) was > 100 µM and the TGI (A498 renal) was > 100 µM.
With `N=C(c1ccccc1)N(O)C1CCCCC1` the TGI (COLO 205 colon) was > 100 µM, the TGI (CAKI-1 renal) was > 100 µM and the TGI (OVCAR-4 ovarian) was > 100 µM. The TGI (UO-31 renal) was > 100 µM, the TGI (NCI-H226 lung) was > 100 µM and the TGI (HCC-2998 colon) was > 100 µM.
In the case of `O=c1ccccc2cccc(O)c12`, the TGI (RPMI-8226 leukemia) is reported as > 100 µM, the TGI (ACHN renal) is reported as > 100 µM and the TGI (COLO 205 colon) is reported as > 100 µM. The TGI (CAKI-1 renal) was > 100 µM, the TGI (OVCAR-4 ovarian) was > 100 µM and the TGI (HCC-2998 colon) was > 100 µM. For the same molecule, the TGI (A498 renal) was > 100 µM.
For `O=c1cc(Cl)nc[nH]1`, the TGI (RPMI-8226 leukemia) was > 100 µM, the TGI (ACHN renal) was > 100 µM and the TGI (COLO 205 colon) was > 100 µM. The TGI (CAKI-1 renal) was > 100 µM, the TGI (OVCAR-4 ovarian) was > 100 µM and the TGI (UO-31 renal) was > 100 µM. The TGI (NCI-H226 lung) was > 100 µM, the TGI (HCC-2998 colon) was > 100 µM and the TGI (A498 renal) was > 100 µM.
`O=C(OCCOCBr)c1ccccc1` was tested, and the TGI (RPMI-8226 leukemia) was > 100 µM, the TGI (ACHN renal) was > 100 µM and the TGI (COLO 205 colon) was > 100 µM. For the same molecule, the TGI (CAKI-1 renal) was > 100 µM, the TGI (OVCAR-4 ovarian) was > 100 µM and the TGI (UO-31 renal) was > 100 µM. The TGI (NCI-H226 lung) was > 100 µM, the TGI (HCC-2998 colon) was > 100 µM and the TGI (A498 renal) was > 100 µM.
In the case of `Cc1cc(NS(=O)(=O)c2ccc(NC(=O)c3cccc4c(N)c5ccccc5nc34)cc2)no1`, the TGI (RPMI-8226 leukemia) is reported as 62.6 µM, the TGI (ACHN renal) is reported as 46.6 µM and the TGI (COLO 205 colon) is reported as 53.6 µM. For the same molecule, the TGI (CAKI-1 renal) was 80.4 µM, the TGI (OVCAR-4 ovarian) was 70.5 µM and the TGI (UO-31 renal) was 95.7 µM. It also gave a TGI (NCI-H226 lung) of 33.4 µM and a TGI (A498 renal) of 52 µM.
In the case of `COC(OC)c1cccc2c1C1(O)CCC3(CC21)OCCCCO3` (configuration not stated), the TGI (RPMI-8226 leukemia) is reported as > 100 µM, the TGI (ACHN renal) is reported as > 100 µM and the TGI (COLO 205 colon) is reported as > 100 µM. For the same molecule, the TGI (CAKI-1 renal) was > 100 µM, the TGI (OVCAR-4 ovarian) was > 100 µM and the TGI (UO-31 renal) was > 100 µM. The TGI (NCI-H226 lung) was > 100 µM, the TGI (HCC-2998 colon) was > 100 µM and the TGI (A498 renal) was > 100 µM.
Work on `CN(C)CCn1c2ccccc2c2nc3cc4ccccc4cc3nc21` yielded a TGI (RPMI-8226 leukemia) of 13.2 µM, a TGI (ACHN renal) of 11.1 µM and a TGI (COLO 205 colon) of 12.3 µM. It also gave a TGI (CAKI-1 renal) of 20 µM, a TGI (OVCAR-4 ovarian) of 23.7 µM and a TGI (UO-31 renal) of 18.1 µM. The TGI (NCI-H226 lung) was 34.6 µM, the TGI (HCC-2998 colon) was 17.7 µM and the TGI (A498 renal) was 8.11 µM.
For `O=c1[nH]c(Br)nc2c(Br)c[nH]c12`, the TGI (RPMI-8226 leukemia) was > 100 µM, the TGI (ACHN renal) was > 100 µM and the TGI (COLO 205 colon) was > 100 µM. For the same molecule, the TGI (CAKI-1 renal) was > 100 µM, the TGI (OVCAR-4 ovarian) was > 100 µM and the TGI (UO-31 renal) was > 100 µM. For the same molecule, the TGI (NCI-H226 lung) was > 100 µM and the TGI (A498 renal) was > 100 µM.
Work on `CCC[CH2][Sn]([CH2]CCC)([O]C(=O)c1cccc(F)c1)[O]C(=O)c1cccc(F)c1` yielded a GI50 (RPMI-8226 leukemia) of 0.329 µM, a TGI (RPMI-8226 leukemia) of 2.02 µM and a GI50 (ACHN renal) of 1.3 µM. The TGI (ACHN renal) was 2.59 µM, the GI50 (COLO 205 colon) was 0.852 µM and the TGI (COLO 205 colon) was 2.18 µM. It also gave a GI50 (CAKI-1 renal) of 0.369 µM, a TGI (CAKI-1 renal) of 1.43 µM and a GI50 (OVCAR-4 ovarian) of 2.05 µM. The TGI (OVCAR-4 ovarian) was 3.83 µM, the GI50 (UO-31 renal) was 1.23 µM and the TGI (UO-31 renal) was 2.47 µM. The GI50 (NCI-H226 lung) was 1.16 µM, the TGI (NCI-H226 lung) was 2.4 µM and the GI50 (HCC-2998 colon) was 1.47 µM. It also gave a TGI (HCC-2998 colon) of 2.81 µM, a GI50 (A498 renal) of 0.467 µM and a TGI (A498 renal) of 1.98 µM.
